# According to US20040097534A1, “Composition for the protection and regeneration of nerve cells containing berberine derivatives” (EUGENBIO INC., priority 2001, published 2004):
# Where “and” joins values, the source holds several entries; their conditions need not be identical. Equal values may be shown once. Entries after “also recorded” stand apart in the source; their conditions may differ.
# What was measured:
# [1] = system: white rats; assay: Toxicity and side effects in vivo
# Description: The dosage for berberine can be varied depending upon known factors, such as age, sex, body weight, disease severity and health condition of the recipient. The daily dosage is commonly in the range of 100 to 150 mg/60 kg of body weight in two or three installments.
# [2] = system: nerve cells in cerebral slices; assay: Apoptosis of nerve cells induced by MK-801, TUNEL staining of cerebral slices; format: in vivo; conditions: for apoptosis of nerve cells (TUNEL staining): berberine (5 mg/kg) alone, intraperitoneal, young white rats
# Text: All groups were intraperitoneally injected.
# Experimental animals were sacrificed under anesthetization and their brains were excised. The excised brains were fixed with formalin and tissue sections were obtained. The tissue sections were stained by TUNEL method, and photographed (×1.25 and ×400) using an optical microscope (Olympus BX 50).
# The number of TUNEL-positive dead nerve cells in the same area of cerebral slices of 12 rats per group was counted, and the numbers were averaged (FIG. 1).
# [3] = system: SH-SY5Y cells; assay: MTT assay, SH-SY5Y survival under serum deprivation-induced stress; format: cell-based, human; conditions: for O.D.: 2 days; for Average (O.D. relative to N2): N2 = 100%
# Description: Cell injuries under condition of serum deprivation-induced stress and oxidative stress were measured by MTT assay. For MTT assay, Cells were seeded into N2 medium in an amount of 7.5×10^3 cells, and then a neurotoxin or a nerve growth factor was added thereto to differentiate the cells and then 0.1 volume of 4 mg/ml MTT was further added. The mixture was stored at 37° C. for 3-4 hours. After 100 μl of solubilization buffer was added to the mixture and then stored for 24 hours, O.D. values were measured by ELISA assay.
# In order to prepare a stroke-like cell model using SH-SY5Y, the cells were cultured under serum deprivation. […] Retinoic acid, which induces the differentiation of SH-SY5Y as a cell differentiation factor, was used as a positive control. 3 hours before depriving serum, the cells were treated with berberine (0.25˜3 μg). The cells were cultured in chemically defined media (N2) for 2 days to induce nerve regeneration (see, Table 2 and FIG. 4a).
# [4] = system: sciatic nerves; assay: Regeneration of crushed sciatic nerves (axons, myelin sheaths); format: in vivo, Sprague-Dawley white rat; conditions: for number of axons longer than 300 μm / number of myelin sheaths longer than 200 μm: berberine intraperitoneal
# Description: After a Sprague-Dawley white rat (male, weighing about 200 g) was anesthetized with pentobarbital (50 mg/kg), the left sciatic nerve was exposed at the sciatic notch. Subsequently, all nerve fibers except the artery in the sciatic nerve were cut, or both sides of nerve fibers were tied using #9 blood vessel suture, and then the center of the nerve fibers were cut using iridectomy scissors. In a crush model, nerve fibers were thoroughly crushed twice using a crush clip. After nerve fibers were injured, proximal stumps and distal stumps were obtained over various time intervals (6 hours, 1 day, 3 day, 7 day, 14 day, 21 day and 28 day), respectively, before testing. For comparison, the right sciatic nerve was used as a control group.
# After a white rat was anesthetized, its sciatic nerves were exposed and crushed. PBS or berberine was intraperitoneally injected into the rat. 1 week, 2 weeks and 4 weeks after suturing, nerve regeneration was observed. The rat was perfused and then sciatic nerves were obtained from the distal stump. After the obtained sciatic nerves were cryosected to a thickness of 7-10 μm, cryosected sciatic nerves were double-stained using beta-tubulin isotypeIII (cy3, red), which is an axon marker, and MBP ([…], cy2, green) antibody, which is a differentiation (myelin) marker of Schwann cells. It was observed under a confocal microscope that axons (see, Table 11) were longer than 300 μm and myelin sheaths (see, Table 12) were longer than 200 μm (see, FIGS. 13 to 15, 19a and 19b).
# [5] = system: nerve cells in CA1, dentate gyrus and entorhinal cortex; assay: Animal model for dementia (ibotenic acid into entorhinal cortex), calbindin-positive neuron count; format: in vivo, rat
# Description: After white rat brain was fixed with a stereotaxic frame, 1.5 μl (1 mg/ml) of ibotenic acid and PBS, or 1.5 μl (1 mg/ml) of berberine was injected into the entorhinal cortex region using a microinjector to prepare a model for dementia. […]
# Brain was fixed with 4% paraformaldehyde and cryosected to a thickness of 40 μm, and then the cryosected brain was permeablized with 0.5% Triton X-100 for 20 minutes and blocked using 15% blocking serum for 2 hours. After reacting with anti-calbindin antibody at a temperature 4° C. for 16 hours and then further reacting with FITC-labeled secondary antibody or rhodamin (TRITC)-labeled secondary antibody for 1 hour, the cells were fixed on a slide before examining under a confocal microscope.
# As an animal model for dementia, ibotenic acid was microinjected into the entorhinal cortex of adult rat brain using a stereotaxic frame.
# First, an adult rat was anesthetized, and its head was fixed with a stereotaxic frame. Subsequently, 1.5 μl (1 mg/ml) of ibotenic acid was injected into the entorhinal cortex region to prepare a model for dementia, and then berberine was injected into the same site. 2 weeks after operation, brain tissue sections were counter-stained with hematocylin to examine apoptosis and protective effect. After fluorescence-staining the cells, regions used for cell count were represented as squares (FIG. 14). In addition, the cells were fluorescence-stained with calbindin antibody, a nerve-specific marker, to examine nerve cell survival (see, Tables 8 to 10, FIGS. 11 and 12).
# [6] = Ibotenic Acid + Berberine, 2 weeks after operation
# [7] = berberine injected after ibotenic acid
smiles,measurement,setting,value
"COc1ccc2cc3[n+](cc2c1OC)CCc1cc2c(cc1-3)OCO2 [Berberine, 7,8,13,13a-tetradihydro-9,10-dimethoxy-2,3-(methylenedioxy) berbinium]",LD50,[1]; intraperitoneally injected,24.3 mg/kg
same,acute toxicity,[1]; white rats,no acute toxicity
same,side effects on liver functions,[1]; white rats,no side effects on liver functions
same,apoptosis of nerve cells (TUNEL staining),[2],did not induce apoptosis of nerve cells
same,apoptosis of nerve cells (TUNEL staining),[2]; listed as berberine,apoptosis of nerve cells was not observed
same,inhibition of apoptosis of nerve cells induced by MK-801,"[2]; pretreated with berberine (5 mg/kg) for 5 days, then MK-801 (0.5 mg/kg) i.p.",considerably inhibits apoptosis of nerve cells induced by MK-801
same,O.D.,[3]; N2 + berberine 0.25 μg/ml,0.076
same,Average (O.D. relative to N2),[3]; N2 + berberine 0.25 μg/ml,113%
same,O.D.,[3]; N2 + berberine 1.5 μg/ml,0.118
same,Average (O.D. relative to N2),[3]; N2 + berberine 1.5 μg/ml,177%
same,O.D.,[3]; N2 + berberine 3 μg/ml,0.104
same,Average (O.D. relative to N2),[3]; N2 + berberine 3 μg/ml,155%
same,cell survival,"[3]; serum deprivation, berberine 3 μg/ml compared with 1.5 μg/ml",somewhat decreased
same,cell survival rate versus control group,"[3]; serum deprivation, berberine (1.5 μg/ml elsewhere in the source)",two times higher
same,"number of myelin sheaths longer than 200 μm, increase",[4]; 1 week,doubled
same,effect on axonal growth and the regeneration of myelin sheaths,[4]; 1 week after operation,not great
same,number of axons longer than 300 μm,"[4]; 1 week, PBS = 14.5",24.6
same,number of myelin sheaths longer than 200 μm,"[4]; 1 week, PBS = 16.5",35
same,number of axons longer than 300 μm,"[4]; 2 weeks, PBS = 20.5",32.3
same,number of myelin sheaths longer than 200 μm,"[4]; 2 weeks, PBS = 43",88.6
same,"number of axons (neurites) longer than 300 μm, increase",[4]; 4 weeks,doubled
same,"number of myelin sheaths longer than 200 μm, increase",[4]; 4 weeks,3 times
same,"cell number (%) relative to Ibotenic Acid, CA, average",[5]; Berberine alone,311%
same,"cell number (%) relative to Ibotenic Acid, DG, average",[5]; Berberine alone,204%
same,"cell number (%) relative to Ibotenic Acid, ENT, average",[5]; Berberine alone,225%
same,"cell number relative to Ibotenic Acid average = 100, CA (individual animals #1-#3)",[5]; Berberine alone,355 and 257 and 320
same,"cell number relative to Ibotenic Acid average = 100, DG (individual animals #1-#3)",[5]; Berberine alone,229 and 189 and 195
same,"cell number relative to Ibotenic Acid average = 100, ENT (individual animals #1-#3)",[5]; Berberine alone,237 and 208 and 229
same,"cell number, CA (individual animals #1-#3)",[5]; Berberine alone,174 and 126 and 157
same,"cell number, CA, AVR",[5]; Berberine alone,152.3
same,"cell number, DG (individual animals #1-#3)",[5]; Berberine alone,421
same,"cell number, DG, AVR",[5]; Berberine alone,375.3
same,"cell number, ENT (individual animals #1-#3)",[5]; Berberine alone,173 and 152 and 167
same,"cell number, ENT, AVR",[5]; Berberine alone,164
same,"cell number (%) relative to Ibotenic Acid, CA, average",[5]; Ibotenic Acid + Berberine,278%
same,"cell number (%) relative to Ibotenic Acid, DG, average",[5]; Ibotenic Acid + Berberine,190%
same,"cell number (%) relative to Ibotenic Acid, ENT, average",[5]; Ibotenic Acid + Berberine,126%
same,"cell number relative to Ibotenic Acid average = 100, CA (individual animals #1-#3)",[5]; Ibotenic Acid + Berberine,231 and 337 and 267
same,"cell number relative to Ibotenic Acid average = 100, DG (individual animals #1-#3)",[5]; Ibotenic Acid + Berberine,221 and 157 and 191
same,"cell number relative to Ibotenic Acid average = 100, ENT (individual animals #1-#3)",[5]; Ibotenic Acid + Berberine,129 and 122 and 127
same,"cell number, CA, AVR",[5]; Ibotenic Acid + Berberine,136.3
same,"cell number, DG, AVR",[5]; Ibotenic Acid + Berberine,348.7
same,"cell number, ENT, AVR",[5]; Ibotenic Acid + Berberine,92
same,"cell number, CA (individual animals #1-#3)",[5]; [6],113 and 165 and 131
same,"cell number, DG (Dentate Gyrus) (individual animals #1-#3)",[5]; [6],406 and 289 and 351
same,"cell number, ENT (Entorhinal Cortex) (individual animals #1-#3)",[5]; [6],94 and 89 and 93
same,survival of calbindin-positive neurons in the entorhinal cortex,[5]; [7],somewhat increased
same,"survival rates of granule cells in the dentate gyrus regions, increase",[5]; [7],doubled; also recorded: two times
same,"survival rates of pyramidal cells in the CA1 region, increase",[5]; [7],2.5 times
